Read-outs that look alike come from different tables or passages of the source.
Columns and labels:
[1] = target: T1, CCK receptor (brain, cerebral cortex) (Cavia porcellus, UniProt H0VZC5); test: biochemical; format: binding, Male Hartley guinea pigs; settings: guinea pig cerebral cortex, ^125 I-CCK-33, 25° C., 2 hours
T1 construct: Cerebral cortex was dissected and used as a receptor source; from tissue; host or cells: guinea pig cerebral cortex membranes (male Hartley)
T1 sequence (H0VZC5 1-426): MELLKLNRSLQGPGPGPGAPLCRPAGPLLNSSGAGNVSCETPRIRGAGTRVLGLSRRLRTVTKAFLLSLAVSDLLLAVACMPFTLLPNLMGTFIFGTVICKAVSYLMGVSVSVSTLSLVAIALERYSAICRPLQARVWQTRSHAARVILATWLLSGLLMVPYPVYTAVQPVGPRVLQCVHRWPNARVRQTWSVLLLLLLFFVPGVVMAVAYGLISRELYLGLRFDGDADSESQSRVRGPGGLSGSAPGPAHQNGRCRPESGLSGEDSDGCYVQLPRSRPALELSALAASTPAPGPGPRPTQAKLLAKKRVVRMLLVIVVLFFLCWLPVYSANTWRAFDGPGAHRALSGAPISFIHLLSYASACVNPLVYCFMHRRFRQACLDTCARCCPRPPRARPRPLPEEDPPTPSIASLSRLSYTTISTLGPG
Protocol: 2. CCK Recepto Binding (Brain)
CCK-33 was radiolabeled and the binding was Performed according to the description for the Pancreas method with modifications according to Saito et al., J. Neurochem.
Cerebral cortex was dissected and used as a receptor source. Each gram of fresh guinea pig brain tissue was homogenized in 10 ml of Tris/Trizma buffer with a Brinkman polytron PT-10. The homogenates were centrifuged at 42,000 g for 15 minutes. Pellets were resuspended in Tris Buffer, centrifuged as above and resuspended in 200 volumes of binding assay buffer (10 mM N-2-hydroxyethyl-piperazine-N'-2-ethane sulfonic acid (HEPES), 5 mM MgCl2, 0.25 mg/ml bacitracin, 1 mM ethylene glycol-bis-(β-aminoethylether-N,N'-tetraacetic acid) (EGTA), and 0.4% bovine serum albumin (BSA)). […] All assays were run in duplicate or triplicate. The reaction mixtures were incubated at 25° C. for 2 hours and centrifuged in a Beckman Microfuge (4 minutes) immediately after adding 1 ml of ice-cold incubation buffer. The supernatant was aspirated and discarded, pellets were counted with a Beckman gamma 5000.

[2] = target: T2, Gastrin receptor (gastric glands) (Cavia porcellus, UniProt H0VZC5); test: Gastrin Receptor Binding in Guinea Pig Gastric Glands; set-up: species or system guinea pig (male Hartley); settings: 25° C., 30 minutes
T2 construct: The washed guinea pig gastric glands prepared as above were resuspended; from tissue; host or cells: guinea pig gastric mucosal glands (male Hartley)
T2 sequence (H0VZC5 1-426): T1 sequence (H0VZC5 1-426)

[3] = IC50 ^125 I-Gastrin Gastric Glands
[4] = read-out: IC50 ^125 I-CCK Brain
[5] = ^125 I-gastrin, read-out: IC50 ^125 I-Gastrin Gastric Glands

| SMILES | IC50 ([1]; IC50 ^125 I-CCK Brain) [µM] | IC50 [2, 3] [µM] | IC50 [1, 4] [µM] | IC50 [2, 5] [µM] |
| --- | --- | --- | --- | --- |
| CN(C)c1ccc(C(=O)NC2N=C(c3ccccc3F)c3ccccc3NC2=O)cc1 (racemic) [Example 152, 1,3-Dihydro-3(RS)-(p-dimethylaminobenzoylamino)-5-(2-fluorophenyl)-2H-1,4-benzodiazepin-2-one] | > 100 | > 100 |  |  |
| COc1ccc(C(=O)NC2N=C(c3ccccc3F)c3ccccc3NC2=O)cc1OC (racemic) [Example 153, 1,3-Dihydro-3(RS)-(3,4-dimethoxybenzoylamino)-5-(2-fluorophenyl)-2H-1,4-benzodiazepin-2-one] | > 40 | > 40 |  |  |
| O=C(NC1N=C(c2ccccc2)c2ccccc2NC1=O)c1cccc(SC(F)(F)F)c1 (racemic) [Example 155, 1,3-Dihydro-5-phenyl-3(RS)-(3-trifluoromethylthiobenzoylamino)-2H-1,4-benzodiazepin-2-one] | > 100 | 128 |  |  |
| O=C(NC1N=C(c2ccccc2F)c2ccccc2NC1=O)c1ccc[nH]1 (racemic) [Example 158, 1,3-Dihydro-5-(2-fluorophenyl)-3(RS)-(pyrrole-2-carbonylamino)-2H-1,4-benzodiazepin-2-one] | 100 | 25 |  |  |
| O=C(NC1N=C(c2ccccc2)c2ccccc2NC1=O)c1ccc2ccccc2c1 (racemic) [Example 160, 1,3-Dihydro-3(RS)-(2-naphthoylamino)-5-phenyl-2H-1,4-benzodiazepin-2-one] | 12 | 14 |  |  |
| CCCc1ccc(C(=O)NC2N=C(c3ccccc3)c3ccccc3NC2=O)cc1 (racemic) [Example 163, 1,3-Dihydro-5-phenyl-3(RS)-(4-α-propylbenzoylamino)-2H-1,4-benzodiazepin-2-one] | 12 | 80 |  |  |
| O=C(NC1N=C(c2ccccc2)c2ccccc2NC1=O)c1ccc(-c2ccccc2)cc1 (racemic) [Example 164, 1,3-Dihydro-5-phenyl-3(RS)-(4-phenylbenzoylamino)-2H-1,4-benzodiazepin-2-one] | 18 | > 100 |  |  |
| CCCCCc1ccc(C(=O)NC2N=C(c3ccccc3)c3ccccc3NC2=O)cc1 (racemic) [Example 165, 1,3-Dihydro-3(RS)-(4-n-pentylbenzoylamino)-5-phenyl-2H-1,4-benzodiazepin-2-one] | 8 | > 100 |  |  |
| O=C(NC1N=C(c2ccccc2)c2ccccc2NC1=O)c1cccc2ccccc12 (racemic) [Example 166, 1,3-Dihydro-3(RS)-(1-naphthoylamino)-5-phenyl-2H-1,4-benzodiazepin-2-one] | 12 | 29 |  |  |
| O=C(NC1N=C(c2ccccc2F)c2ccccc2NC1=O)c1ccccc1 (racemic) [Example 173, 1,3-Dihydro-5-(2-fluorophenyl)-3(RS)-phenylcarbonylamino-2H-1,4-benzodiazepin-2-one] | > 40 | 28 |  |  |
| O=C(NC1N=C(c2ccccc2F)c2ccccc2NC1=O)c1ccccc1Cl (racemic) [Example 174, 1,3-Dihydro-5-(2-fluorophenyl)-3(RS)-(2-chlorophenyl)carbonylamino-2H-1,4-benzodiazepin-2-one] | > 40 | 18 |  |  |
| O=C(NC1N=C(c2ccccc2F)c2ccccc2N(C(=O)c2ccc(Cl)cc2)C1=O)c1ccc(Cl)cc1 (racemic) [Example 177, 1-(4-Chlorophenyl)carbonyl-1,3-dihydro-5-(2-fluorophenyl)-3(RS)-(4-chlorophenyl)carbonylamino-2H-1,4-benzodiazepin-2-one] | 3.7 | 0.55 |  |  |
| O=C(Nc1ccc(Cl)cc1)NC1N=C(c2ccccc2F)c2ccccc2NC1=O (racemic) [Example 182, 1,3-Dihydro-3(RS)-(4-chlorophenyl)aminocarbonylamino-5-(2-fluorophenyl)-2H-1,4-benzodiazepin-2-one] | 0.3 | 0.26 |  |  |
| N[C@@H](Cc1ccccc1)C(=O)NC1N=C(c2ccccc2)c2ccccc2NC1=O (single isomer, unassigned) [Example 186] |  |  | > 100 | > 100 |
| CCN(CC)C(=O)C(C)N1C(=O)C(NC(=O)Nc2ccc(Cl)cc2)N=C(c2ccccc2)c2ccccc21 (single isomer, unassigned) [Example 249, 3-((((4-Chlorophenyl)amino)carbonyl)amino)-N,N,-diethyl-2,3-dihydro-alpha-methyl-2-oxo-5-phenyl-1H-1,4-benzodiazepine-1-acetamide] |  |  | 0.022 | 0.012 |
| CN1C(=O)[C@@H](NC(=O)[C@@H](N)Cc2ccccc2)N=C(c2ccccc2)c2ccccc21 [Example 84a, 3(S)-(2(S)-amino-3-phenylpropanoylamino)-1,3-dihydro-1-methyl-5-phenyl-2H-1,4-benzodiazepin-2-one] | > 40 |  |  | > 40 |
| CN1C(=O)[C@H](NC(=O)[C@@H](N)Cc2ccccc2)N=C(c2ccccc2)c2ccccc21 [Example 84b, 3(R)-(2(S)-amino-3-phenylpropanoylamino)-1,3-dihydro-1-methyl-5-phenyl-2H-1,4-benzodiazepin-2-one] | > 100 |  |  | 55 |
| CN1C(=O)[C@H](N)N=C(c2ccccc2)c2ccccc21 [Example 85b, 3(R)-(+)-3-amino-1,3-dihydro-1-methyl-5-phenyl-2H-1,4-benzodiazepin-2-one] | > 100 | > 100 |  |  |
| CN1C(=O)[C@@H](NC(=O)c2ccccc2Br)N=C(c2ccccc2F)c2ccccc21 [Example 161, 3(S)-(-)-3-(2-Bromobenzoylamino)-1,3-dihydro-5-(2-fluorophenyl)-1-methyl-2H-1,4-benzodiazepin-2-one] | 70 |  |  | 19 |
| CN1C(=O)[C@@H](NC(=O)c2cccc(I)c2)N=C(c2ccccc2F)c2ccccc21 [Example 167, 3(S)-(+)-1,3-Dihydro-5-(2-fluorophenyl)-3-(3-iodobenzoylamino)-1-methyl-2H-1,4-benzodiazepin-2-one] |  |  | 1.7 | 0.39 |
| CN1C(=O)[C@H](NC(=O)c2ccccc2Br)N=C(c2ccccc2F)c2ccccc21 [Example 171, 3(R)-(+)-3-(2-Bromobenzoylamino)-1,3-dihydro-5-(2-fluorophenyl)-1-methyl-2H-1,4-benzodiazepin-2-one] | 5.6 |  |  | 5.8 |
| CCOC(=O)CN1C(=O)C(NC(=O)c2ccccc2Cl)N=C(c2ccccc2F)c2ccccc21 (stereo not shown) [Example 188, 3-(2'-Chlorobenzoylamino)-1-ethoxycarbonylmethyl-5-(2'-fluorophenyl)-2H-1,4-benzodiazepine-2-one] | 3.2 | 1.3 |  |  |
| CN1C(=O)[C@@H](NC(=O)C=Cc2ccccc2)N=C(c2ccccc2)c2ccccc21 [Example 192, (S)-N-(2,3-Dihydro-1-methyl-2-oxo-5-phenyl-1H-1,4-benzodiazeoin-3-yl)-3-phenyl-2-propenamide] |  |  | 0.64 | 0.18 |
| CN1C(=O)[C@H](NC(=O)C2CCCCC2)N=C(c2ccccc2)c2ccccc21 [Example 198, (R)-N-(2,3-Dihydro-1-methyl-2-oxo-5-phenyl-1H-1,4-benzodiazepin-3-yl)-cyclohexanecarboxamide] |  |  | 18 | 1.5 |
| CN1C(=O)[C@@H](NC(=O)[C@@H](Cc2ccccc2)NC(=O)OC(C)(C)C)N=C(c2ccccc2F)c2ccccc21 [Example 232, (S-(R*,S*))-(2-((5-(2-Fluorophenyl)-2,3-dihydro-1-methyl-2-oxo-1H-1,4-benzodiazepin-3-yl)amino)-2-oxo-1-(phenylmethyl)ethyl)-carbamic acid 1,1-dimethylethyl ester] |  |  | 1 | 1.2 |
| CN1C(=O)[C@@H](NC(=O)c2ccccc2I)N=C(c2ccccc2)c2ccccc21 [Example 283, (S)-N-(2,3-Dihydro-1-methyl-2-oxo-5-phenyl-1H-1,4-benzodiazepin-3-yl)-2-iodobenzamide] |  |  | 71 | 66 |

Source: patent US4820834A, “Benzodiazepine analogs” (priority 1987, dated 1989)
